This note sets out measurements from patent US8680275B2, “Fused heterocyclic compounds as orexin receptor modulators” (Janssen Pharmaceutica NV, priority 2009, dated 2014).

As usually defined, the Ki is a measure of affinity in units of concentration, obtained from inhibition or displacement.

One test has as its target human orexin 1 receptor (Homo sapiens (Human), UniProt O43613). Put plainly: Human orexin 1 receptor radioligand binding ([3H]-SB674042 competition). As to conditions: CHO cells stably expressing human orexin 1 receptor; [3H]-SB674042 4 nM final; read-out: OR-1 Ki. The essentials:
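CHO cells stably expressing human OX1R incubated 60 min at room temperature with [3H]-SB674042 and compounds (7 concentrations, 0.1 nM–10 μM; DMSO ≤0.1%) in PBS. Nonspecific binding defined with 10 μM of a reference urea antagonist; bound radioactivity measured by filtration and scintillation counting.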

Another test has as its target human orexin-2 receptor (Homo sapiens (Human), UniProt O43614). Put plainly: Human orexin 2 receptor radioligand binding ([3H]-EMPA competition). The settings on record: HEK293 cells stably expressing human orexin-2 receptor; [3H]-EMPA 5 nM final; read-out: OR-2 Ki. An outline of the steps: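 Competition binding on HEK293 cells stably expressing human orexin-2 receptor, using 5 nM final [3H]-EMPA in PBS, compounds 0.1 nM to 10 μM (DMSO ≤0.1%). 60 min at room temperature, then filtration and scintillation counting; nonspecific binding defined with 10 μM of a reference antagonist.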

Chain of human orexin-2 receptor (O43614 whole entry): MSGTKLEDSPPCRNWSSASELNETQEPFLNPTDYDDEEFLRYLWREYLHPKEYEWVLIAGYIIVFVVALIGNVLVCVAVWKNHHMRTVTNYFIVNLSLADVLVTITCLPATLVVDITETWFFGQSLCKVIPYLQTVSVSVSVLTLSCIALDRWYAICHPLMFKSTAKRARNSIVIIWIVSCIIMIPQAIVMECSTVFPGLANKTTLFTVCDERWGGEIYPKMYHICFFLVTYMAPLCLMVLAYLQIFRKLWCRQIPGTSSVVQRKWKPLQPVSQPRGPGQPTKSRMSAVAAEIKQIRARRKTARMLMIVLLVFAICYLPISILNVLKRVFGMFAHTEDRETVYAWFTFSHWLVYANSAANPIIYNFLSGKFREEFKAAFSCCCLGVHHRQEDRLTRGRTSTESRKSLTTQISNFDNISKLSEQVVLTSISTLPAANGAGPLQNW
Chain of human orexin 1 receptor (O43613 whole entry): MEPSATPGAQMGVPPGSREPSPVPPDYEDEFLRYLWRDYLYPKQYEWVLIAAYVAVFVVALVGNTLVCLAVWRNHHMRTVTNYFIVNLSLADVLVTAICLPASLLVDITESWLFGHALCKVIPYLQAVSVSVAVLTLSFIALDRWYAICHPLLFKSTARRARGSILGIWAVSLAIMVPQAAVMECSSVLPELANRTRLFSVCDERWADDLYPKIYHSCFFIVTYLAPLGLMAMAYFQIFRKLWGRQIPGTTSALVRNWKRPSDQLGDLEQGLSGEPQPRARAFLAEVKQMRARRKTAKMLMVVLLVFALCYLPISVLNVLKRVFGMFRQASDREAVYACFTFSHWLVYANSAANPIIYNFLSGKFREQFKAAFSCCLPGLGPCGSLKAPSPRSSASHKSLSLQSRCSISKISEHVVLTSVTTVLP

For `Cc1cc(C)nc(N2C[C@@H]3CCN(C(=O)c4cccc5c4-c4ccccc4C5)C[C@@H]32)n1` [Example 167, (1R,6S)-8-(4,6-Dimethylpyrimidin-2-yl)-3-(9H-fluoren-4-ylcarbonyl)-3,8-diazabicyclo[4.2.0]octane], the Ki at human orexin 1 receptor stood at 219 nM; at human orexin-2 receptor, 55 nM.

For `Cc1cc(C)nc(N2C[C@@H]3CCN(C(=O)c4cccnc4C(F)(F)F)C[C@@H]32)n1` [Example 89, (1R,6S)-8-(4,6-Dimethylpyrimidin-2-yl)-3-{[2-(trifluoromethyl)pyridin-3-yl]carbonyl}-3,8-diazabicyclo[4.2.0]octane], the Ki is 10000 nM at human orexin 1 receptor and 220 nM at human orexin-2 receptor.

For `O=C(c1cc(F)ccc1-n1nccn1)N1CC[C@H]2CN(c3cccc(C(F)(F)F)n3)[C@H]2C1` [Example 129, (1R,6S)-3-{[5-Fluoro-2-(2H-1,2,3-triazol-2-yl)phenyl]carbonyl}-8-[6-(trifluoromethyl)pyridin-2-yl]-3,8-diazabicyclo[4.2.0]octane], the figures for the Ki at human orexin 1 receptor and at human orexin-2 receptor were 265 nM and 36 nM, respectively.

For `Cc1cc(C)nc(N2C[C@@H]3CCN(C(=O)c4nccnc4-c4ccccc4)C[C@@H]32)n1` [Example 137, (1R,6S)-8-(4,6-Dimethylpyrimidin-2-yl)-3-[(3-phenylpyrazin-2-yl)carbonyl]-3,8-diazabicyclo[4.2.0]octane], the Ki on human orexin 1 receptor turned out to be 10000 nM; at human orexin-2 receptor, 275 nM.

As to `CN(C)c1cc(N2C[C@@H]3CCN(C(=O)c4cc(F)ccc4-n4nccn4)C[C@@H]32)ncn1` [Example 189, 6-[(1R,6S)-3-{[5-Fluoro-2-(2H-1,2,3-triazol-2-yl)phenyl]carbonyl}-3,8-diazabicyclo[4.2.0]oct-8-yl]-N,N-dimethylpyrimidin-4-amine], the inhibitory constant (Ki) at human orexin 1 receptor was 4100 nM; on human orexin-2 receptor, 110 nM.

For `Cc1cncc(N2C[C@@H]3CCN(C(=O)c4cccc(F)c4-n4nccn4)C[C@@H]32)n1` [Example 110, (1R,6S)-3-{[3-Fluoro-2-(2H-1,2,3-triazol-2-yl)phenyl]carbonyl}-8-(6-methylpyrazin-2-yl)-3,8-diazabicyclo[4.2.0]octane], the Ki on human orexin 1 receptor was 10000 nM; at human orexin-2 receptor, 220 nM.

As to `O=C(c1cccc(F)c1-n1nccn1)N1CC[C@H]2CN(c3nc4cc(Cl)ccc4o3)[C@H]2C1` [Example 123, 5-Chloro-2-[(1R,6S)-3-{[3-fluoro-2-(2H-1,2,3-triazol-2-yl)phenyl]carbonyl}-3,8-diazabicyclo[4.2.0]oct-8-yl]-1,3-benzoxazole], the figures for the Ki on human orexin 1 receptor and on human orexin-2 receptor were 95 nM and 45 nM, respectively.

Regarding `Nc1cc(N2C[C@@H]3CCN(C(=O)c4cc(F)ccc4-n4nccn4)C[C@@H]32)nc(N)n1` [Example 192, 6-[(1R,6S)-3-{[5-Fluoro-2-(2H-1,2,3-triazol-2-yl)phenyl]carbonyl}-3,8-diazabicyclo[4.2.0]oct-8-yl]pyrimidine-2,4-diamine], the inhibition constant Ki was found to be 10000 nM on human orexin 1 receptor and 1400 nM on human orexin-2 receptor.

For `Cc1cc(C)nc(N2C[C@H]3CCN(C(=O)c4ccccc4-c4ccccc4)C[C@H]32)n1` [Example 18, (1S,6R)Biphenyl-2-yl-[8-(4,6-dimethyl-pyrimidin-2-yl)-3,8-diaza-bicyclo[4.2.0]oct-3-yl]-methanone], the Ki on human orexin 1 receptor was determined as 3830 nM; on human orexin-2 receptor, 763 nM.

As to `Cc1ccc(S(=O)(=O)N2CC[C@H]3CN(c4cnc5ccccc5n4)[C@H]3C2)c(C)c1` [Example 20, (1R,6S)2-[3-(2,4-Dimethyl-benzenesulfonyl)-3,8-diaza-bicyclo[4.2.0]oct-8-yl]-quinoxaline], the Ki at human orexin 1 receptor is 379 nM; at human orexin-2 receptor, 2110 nM.

For `Cc1nc(C(=O)N2CC3CN(c4nccc(-c5ccccc5)n4)C3C2)c(-c2ccccc2F)s1` (stereo not shown) [Example 52, 3-{[5-(2-Fluorophenyl)-2-methyl-1,3-thiazol-4-yl]carbonyl}-6-(4-phenylpyrimidin-2-yl)-3,6-diazabicyclo[3.2.0]heptane], the Ki is 104 nM on human orexin 1 receptor and 137 nM on human orexin-2 receptor.

For `Cc1cc(C)nc(N2C[C@@H]3CCN(C(=O)c4ncoc4-c4ccccc4F)C[C@@H]32)n1` [Example 177, (1R,6S)-8-(4,6-Dimethylpyrimidin-2-yl)-3-{[5-(2-fluorophenyl)-1,3-oxazol-4-yl]carbonyl}-3,8-diazabicyclo[4.2.0]octane], the Ki on human orexin 1 receptor was determined as 2400 nM; at human orexin-2 receptor, 340 nM.

As for `Cc1cc(N2C[C@@H]3CCN(C(=O)c4cc(F)ccc4-n4nccn4)C[C@@H]32)nc(N(C)C)n1` [Example 40, (1R,6S)-[8-(2-Dimethylamino-6-methyl-pyrimidin-4-yl)-3,8-diaza-bicyclo[4.2.0]oct-3-yl]-(5-fluoro-2-[1,2,3]triazol-2-yl-phenyl)-methanone], the Ki on human orexin 1 receptor amounted to 1210 nM; on human orexin-2 receptor, 91 nM.

`O=C(c1ccccc1Br)N1CC[C@H]2CN(c3cnc4ccccc4n3)[C@H]2C1` [Example 13, (1R,6S)(2-Bromo-phenyl)-(8-quinoxalin-2-yl-3,8-diaza-bicyclo[4.2.0]oct-3-yl)-methanone]: the Ki on human orexin 1 receptor worked out at 78 nM; on human orexin-2 receptor, 144 nM.

Turning to `Cc1cccc(N2C[C@@H]3CCN(C(=O)c4cc(F)ccc4-n4nccn4)C[C@@H]32)n1` [Example 126, (1R,6S)-3-{[5-Fluoro-2-(2H-1,2,3-triazol-2-yl)phenyl]carbonyl}-8-(6-methylpyridin-2-yl)-3,8-diazabicyclo[4.2.0]octane], the Ki worked out at 5470 nM on human orexin 1 receptor and 149 nM on human orexin-2 receptor.

Consider `Cc1nc(N2C[C@@H]3CCN(C(=O)c4ccccc4-n4nccn4)C[C@@H]32)nc(C)c1C` [Example 270, (1R,6S)-3-{[2-(2H-1,2,3-Triazol-2-yl)phenyl]carbonyl}-8-(4,5,6-trimethylpyrimidin-2-yl)-3,8-diazabicyclo[4.2.0]octane], for which the Ki was found to be 16 nM on human orexin 1 receptor and 11 nM on human orexin-2 receptor.

Consider `Cc1cnc(C)c(N2C[C@@H]3CCN(C(=O)c4ccccc4-n4nccn4)C[C@@H]32)n1` [Example 96, (1R,6S)-8-(3,6-Dimethylpyrazin-2-yl)-3-{[2-(2H-1,2,3-triazol-2-yl)phenyl]carbonyl}-3,8-diazabicyclo[4.2.0]octane], for which the Ki at human orexin 1 receptor is 5840 nM; at human orexin-2 receptor it was 258 nM.

Consider `Cc1ccc(-n2nccn2)c(C(=O)N2CC3CN(c4nccc(-c5ccccc5)n4)C3C2)c1` (stereo not shown) [Example 69], for which the results for the Ki at human orexin 1 receptor and on human orexin-2 receptor were 128 nM and 61 nM, respectively.

On to `O=C(c1cc(F)ccc1-n1nccn1)N1CC[C@H]2CN(c3cc(C(F)(F)F)ccn3)[C@H]2C1` [Example 130, (1R,6S)-3-{[5-Fluoro-2-(2H-1,2,3-triazol-2-yl)phenyl]carbonyl}-8-[4-(trifluoromethyl)pyridin-2-yl]-3,8-diazabicyclo[4.2.0]octane], for which the Ki worked out at 1720 nM at human orexin 1 receptor and 31 nM on human orexin-2 receptor.

Regarding `COc1ccccc1C(=O)N1CC2CN(c3nccc(-c4ccccc4)n3)C2C1` (stereo not shown) [Example 53, 3-[(2-Methoxyphenyl)carbonyl]-6-(4-phenylpyrimidin-2-yl)-3,6-diazabicyclo[3.2.0]heptane], the Ki worked out at 3700 nM at human orexin 1 receptor and 1810 nM at human orexin-2 receptor.
